“Also recorded” adds a separate entry of the source.
Key:
AXL = molecular target: T1, AXL (Homo sapiens, UniProt P30530); assay: MaMTH-DS assay, AXL bait with Shc1 prey; assay type: cell-based
T1 construct: expressed in transfected cells
T1 sequence (P30530 26-894): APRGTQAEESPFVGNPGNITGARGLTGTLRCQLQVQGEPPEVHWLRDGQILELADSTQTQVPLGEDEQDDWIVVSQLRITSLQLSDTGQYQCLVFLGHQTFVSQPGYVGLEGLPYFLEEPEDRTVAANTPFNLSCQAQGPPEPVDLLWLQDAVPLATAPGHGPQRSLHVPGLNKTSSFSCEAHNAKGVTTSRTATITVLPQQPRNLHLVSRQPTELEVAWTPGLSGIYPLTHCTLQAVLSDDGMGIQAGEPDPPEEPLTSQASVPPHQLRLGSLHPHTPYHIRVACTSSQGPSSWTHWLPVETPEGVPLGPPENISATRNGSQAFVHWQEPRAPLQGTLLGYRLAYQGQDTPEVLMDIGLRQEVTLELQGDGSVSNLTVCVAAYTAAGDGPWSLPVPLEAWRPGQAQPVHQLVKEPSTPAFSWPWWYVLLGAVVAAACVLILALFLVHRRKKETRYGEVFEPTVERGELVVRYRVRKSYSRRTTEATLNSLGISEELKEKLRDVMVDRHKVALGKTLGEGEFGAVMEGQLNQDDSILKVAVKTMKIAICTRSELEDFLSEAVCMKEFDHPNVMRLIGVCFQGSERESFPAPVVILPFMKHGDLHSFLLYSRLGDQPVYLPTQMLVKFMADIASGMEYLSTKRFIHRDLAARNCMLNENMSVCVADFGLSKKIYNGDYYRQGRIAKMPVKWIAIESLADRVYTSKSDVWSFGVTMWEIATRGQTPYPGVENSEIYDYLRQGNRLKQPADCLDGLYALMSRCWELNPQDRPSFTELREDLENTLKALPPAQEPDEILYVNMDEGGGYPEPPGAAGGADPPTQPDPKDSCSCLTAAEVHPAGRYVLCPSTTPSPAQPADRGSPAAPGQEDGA
From the text: To test MaMTH-DS sensitivity and its potential suitability for use in RTK drug screening, we selected several RTKs whose dysfunction is associated with cancer, and prepared stable MaMTH-DS ‘baits’ in our reporter cell lines. We then performed MaMTH-DS assays in the presence of transfected Shcl functional adapter protein ‘prey’ and small-molecule TKIs, including both control molecules and compounds known to specifically target the function of the corresponding RTKs. First, we examined the response of the RTK MET to the TKIs Crizotinib and Erlotinib using MaMTH-DS.
MaMTH assays. Cells stably expressing bait of interest (EGFR, MET, FGFR4, ALK, AXL) were seeded into 96-well TC-treated plates and grown at 37° C./5% CO2 overnight in DMEM/10% FBS/1% PS to ˜50-60% confluency. Cells were transfected with 50 ng/well of Nub-Shc1 ‘prey’ protein by calcium phosphate precipitation. Five hours after transfection, media was aspirated out and cells were treated with 100 uL of fresh media containing specific compound and 0.5 ug/ml of tetracyline to induce bait expression. After 24 hours, luciferase activity was measured by chemoluminescence.

[1] = tested on: reporter cells expressing AXL bait; assay: Viability of reporter cells expressing AXL bait; assay type: cell-based
Procedure: (§1) Cell viability assays. MaMTH stable bait cells or Ba/F3 cells were seeded into 96 well plates at 10,000 cells per well. For MaMTH stable cells, the cells were treated the next day with each inhibitor in a dose-dependent manner in addition to 0.5 ug/mL tetracyline to induce bait expression. For BaF3 cells, the cells were treated with each compound the same day as seeding. After 72 hours of drug treatment, cell viability was measured using the CellTiter-Glo assay (Promega).

[2] = tested on: reporter cells expressing FGFR4 bait; assay: Viability of reporter cells expressing FGFR4 bait; assay type: cell-based
Procedure: as §1

[3] = tested on: reporter cells expressing MET bait; assay: Viability of reporter cells expressing MET bait; assay type: cell-based
[4] = tested on: PC9 EGFR ex19del/T790M/C797S organoids; assay: Organoid viability, PC9 EGFR ex19del/T790M/C797S organoids; assay type: cell-based; conditions: 72 hours with compound
EGFR L858R/T790M = molecular target: T2, EGFR L858R/T790M (Homo sapiens, UniProt P00533, L858R/T790M); assay: MaMTH assay, EGFR L858R/T790M bait with Shc1 prey; assay type: cell-based
T2 construct: change the phosphorylation status of full-length EGFR proteins in the context of living cells; expressed in transfected cells

[5] = tested on: PC9 EGFR ex19del/T790M/C797S cells; assay: Cell viability, PC9 EGFR ex19del/T790M/C797S cells; assay type: cell-based; conditions: for cell viability in combination with compound 5213777: with 50 nM of compound 5213777, 72 hours, compared to alone; for cell viability in combination with Panitumumab: with 10 ug/ml Panitumumab, 72 hours
EGFR ex19del/T790M/C797S = EGFR ex19del/T790M/C797S (Homo sapiens, UniProt P00533, C797S/DEL746-750/T790M); assay: In vitro kinase assay, EGFR ex19del/T790M/C797S kinase domain; assay type: biochemical
EGFR ex19del-T790M = assay: In vitro kinase assay, EGFR ex19del-T790M; assay type: biochemical
[6] = tested on: EGFR and downstream signaling molecules in PC9 EGFR-ex19del-T790M-C797S cells; assay: EGFR activation and downstream signaling in PC9 EGFR-ex19del-T790M-C797S cells; assay type: cell-based
EGFR-WT = molecular target: T3, EGFR-WT (Homo sapiens, UniProt P00533); assay: MaMTH assay, EGFR-WT bait with Shc1 prey; assay type: cell-based; conditions: for interaction / complex formation with Shc1 (MaMTH, words): EGFR WT bait; for WT > 50% Inhibition / Average Percent: EGFR-WT bait, Shc1 prey; for Average Percent: retest in triplicate, MaMTH signal remaining (low = inhibition)
T3 construct: change the phosphorylation status of full-length EGFR proteins in the context of living cells; expressed in transfected cells

EGFR-L858R-T790M-C797S = molecular target: T4, EGFR-L858R-T790M-C797S (Homo sapiens, UniProt P00533, C797S/L858R/T790M); assay: MaMTH / MaMTH-DS assay, EGFR-L858R-T790M-C797S bait with Shc1 prey; assay type: cell-based; conditions: retest in triplicate, MaMTH signal remaining (low = inhibition)
T4 construct: change the phosphorylation status of full-length EGFR proteins in the context of living cells; expressed in transfected cells

[7] = tested on: reporter cells expressing ALK bait; assay: Viability of reporter cells expressing ALK bait; assay type: cell-based
[8] = tested on: Ba/F3 cells expressing EGFR-ex19del-T790M-C797S; assay: Ba/F3 cell viability (CellTiter-Glo), EGFR-ex19del-T790M-C797S; assay type: cell-based; conditions: for cell viability in combination with anti-EGFR antibody: with 68 nM Cetuximab or 140 nM Panitumumab
[9] = tested on: Ba/F3 cells expressing EGFR-L858R-T790M-C797S; assay: Ba/F3 cell viability (CellTiter-Glo), EGFR-L858R-T790M-C797S; assay type: cell-based; conditions: for cell viability in combination with anti-EGFR antibody: with 68 nM Cetuximab or 140 nM Panitumumab
[10] = tested on: PC9 EGFR ex19del/T790M/C797S cells; assay: Caspase 3 and 7 activity, PC9 EGFR ex19del/T790M/C797S cells; assay type: cell-based
CFBE cells = assay: Caspase 3 and 7 activity, CFBE cells; assay type: cell-based
[11] = tested on: EGFR and downstream signalling molecules in Ba/F3 EGFR-L858R-T790M-C797S cells; assay: Western analysis of EGFR and downstream signalling, Ba/F3 EGFR-L858R-T790M-C797S; assay type: cell-based
wild-type EGFR = molecular target: T5, wild-type EGFR (Homo sapiens, UniProt P00533); assay: In vitro kinase assay, EGFR WT kinase domain; assay type: biochemical; conditions: up to 10 micromolar
T5 construct: recombinant proteins of the kinase domain of wild-type EGFR; purchased Reaction Biology Corporation

EGFR double mutants = assay: In vitro kinase assay, EGFR double mutants; assay type: biochemical
[12] = tested on: EGFR and downstream signalling molecules in Ba/F3 EGFR-ex19del-T790M-C797S cells; assay: Western analysis of EGFR and downstream signalling, Ba/F3 EGFR-ex19del-T790M-C797S; assay type: cell-based
FGFR4 = molecular target: T6, FGFR4 (Homo sapiens, UniProt P22455); assay: MaMTH-DS assay, FGFR4 bait with Shc1 prey; assay type: cell-based
T6 construct: expressed in transfected cells

MET = molecular target: T7, MET (Homo sapiens, UniProt P08581); assay: MaMTH-DS assay, MET bait with Shc1 prey; assay type: cell-based
T7 construct: expressed in transfected cells

ALK = molecular target: T8, ALK (Homo sapiens, UniProt Q9UM73); assay: MaMTH-DS assay, ALK bait with Shc1 prey; assay type: cell-based
T8 construct: expressed in transfected cells
T8 sequence (Q9UM73 19-1620): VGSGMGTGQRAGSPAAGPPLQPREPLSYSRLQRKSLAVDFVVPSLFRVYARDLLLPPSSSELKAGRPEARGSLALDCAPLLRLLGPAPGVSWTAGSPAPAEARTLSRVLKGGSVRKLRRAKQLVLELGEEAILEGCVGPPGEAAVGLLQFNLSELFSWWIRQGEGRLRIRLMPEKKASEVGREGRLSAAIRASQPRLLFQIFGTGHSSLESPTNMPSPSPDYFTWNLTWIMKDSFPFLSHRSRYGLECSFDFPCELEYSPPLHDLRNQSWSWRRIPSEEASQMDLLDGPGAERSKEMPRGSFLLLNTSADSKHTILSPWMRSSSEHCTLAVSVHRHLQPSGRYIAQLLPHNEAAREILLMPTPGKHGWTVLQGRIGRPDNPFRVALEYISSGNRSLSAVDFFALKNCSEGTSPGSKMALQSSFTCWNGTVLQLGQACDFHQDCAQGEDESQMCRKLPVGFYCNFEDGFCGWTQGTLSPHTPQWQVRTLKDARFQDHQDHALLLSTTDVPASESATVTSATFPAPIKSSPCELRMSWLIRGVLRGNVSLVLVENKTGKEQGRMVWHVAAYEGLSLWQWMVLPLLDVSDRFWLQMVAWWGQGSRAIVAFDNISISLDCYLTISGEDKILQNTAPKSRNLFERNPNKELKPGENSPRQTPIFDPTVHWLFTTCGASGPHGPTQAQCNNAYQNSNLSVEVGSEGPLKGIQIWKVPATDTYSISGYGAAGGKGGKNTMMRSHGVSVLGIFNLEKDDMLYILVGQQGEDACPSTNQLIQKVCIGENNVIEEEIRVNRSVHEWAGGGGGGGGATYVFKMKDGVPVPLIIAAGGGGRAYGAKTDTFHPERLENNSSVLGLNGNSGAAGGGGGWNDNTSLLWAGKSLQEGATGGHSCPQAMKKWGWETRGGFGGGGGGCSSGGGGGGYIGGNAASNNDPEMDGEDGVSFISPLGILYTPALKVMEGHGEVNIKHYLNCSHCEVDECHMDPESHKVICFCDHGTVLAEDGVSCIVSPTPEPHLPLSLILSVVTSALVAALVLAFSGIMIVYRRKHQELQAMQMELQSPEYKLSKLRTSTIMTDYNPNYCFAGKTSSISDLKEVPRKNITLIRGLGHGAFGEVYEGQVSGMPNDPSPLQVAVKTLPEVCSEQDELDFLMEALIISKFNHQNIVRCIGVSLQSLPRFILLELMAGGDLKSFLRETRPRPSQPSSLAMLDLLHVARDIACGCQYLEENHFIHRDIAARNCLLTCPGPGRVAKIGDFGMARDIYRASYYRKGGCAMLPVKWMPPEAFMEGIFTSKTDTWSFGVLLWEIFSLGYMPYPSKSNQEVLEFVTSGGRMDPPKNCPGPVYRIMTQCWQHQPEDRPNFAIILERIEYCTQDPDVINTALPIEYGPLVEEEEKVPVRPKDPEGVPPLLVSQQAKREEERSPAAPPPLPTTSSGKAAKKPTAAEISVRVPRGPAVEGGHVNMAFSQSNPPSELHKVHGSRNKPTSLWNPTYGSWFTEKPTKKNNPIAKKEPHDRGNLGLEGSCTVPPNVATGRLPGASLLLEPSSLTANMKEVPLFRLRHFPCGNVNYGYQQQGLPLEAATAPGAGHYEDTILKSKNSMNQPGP

T7 sequence (P08581 308-1390 limits assumed): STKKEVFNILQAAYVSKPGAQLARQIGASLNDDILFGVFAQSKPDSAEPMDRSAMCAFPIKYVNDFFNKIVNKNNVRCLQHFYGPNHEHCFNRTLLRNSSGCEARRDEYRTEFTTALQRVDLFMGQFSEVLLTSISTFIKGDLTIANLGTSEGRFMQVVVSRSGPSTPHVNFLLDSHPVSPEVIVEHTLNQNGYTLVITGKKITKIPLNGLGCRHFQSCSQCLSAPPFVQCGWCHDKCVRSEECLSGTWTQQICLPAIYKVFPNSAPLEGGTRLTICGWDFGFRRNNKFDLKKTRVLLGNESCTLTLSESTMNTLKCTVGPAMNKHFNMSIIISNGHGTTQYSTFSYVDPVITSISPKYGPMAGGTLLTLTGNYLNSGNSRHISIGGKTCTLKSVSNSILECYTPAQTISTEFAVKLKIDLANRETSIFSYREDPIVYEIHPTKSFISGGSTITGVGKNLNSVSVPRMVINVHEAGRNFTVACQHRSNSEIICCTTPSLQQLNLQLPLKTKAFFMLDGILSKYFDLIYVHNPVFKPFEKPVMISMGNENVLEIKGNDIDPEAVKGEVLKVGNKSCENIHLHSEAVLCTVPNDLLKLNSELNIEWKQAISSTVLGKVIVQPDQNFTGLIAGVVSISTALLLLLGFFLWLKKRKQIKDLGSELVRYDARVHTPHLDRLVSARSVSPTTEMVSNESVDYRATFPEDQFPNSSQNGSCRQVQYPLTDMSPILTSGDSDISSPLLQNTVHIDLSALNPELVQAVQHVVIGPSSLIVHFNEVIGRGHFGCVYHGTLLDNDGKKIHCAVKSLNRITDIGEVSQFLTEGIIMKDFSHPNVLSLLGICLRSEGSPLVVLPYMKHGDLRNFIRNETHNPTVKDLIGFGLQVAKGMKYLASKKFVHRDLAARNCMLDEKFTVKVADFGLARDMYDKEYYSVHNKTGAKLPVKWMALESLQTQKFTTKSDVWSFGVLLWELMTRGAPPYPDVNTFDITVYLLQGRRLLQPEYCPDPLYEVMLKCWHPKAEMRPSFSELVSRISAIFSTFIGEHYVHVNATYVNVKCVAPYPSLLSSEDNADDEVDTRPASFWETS
T7 sequence (P08581 25-307 partner limits assumed): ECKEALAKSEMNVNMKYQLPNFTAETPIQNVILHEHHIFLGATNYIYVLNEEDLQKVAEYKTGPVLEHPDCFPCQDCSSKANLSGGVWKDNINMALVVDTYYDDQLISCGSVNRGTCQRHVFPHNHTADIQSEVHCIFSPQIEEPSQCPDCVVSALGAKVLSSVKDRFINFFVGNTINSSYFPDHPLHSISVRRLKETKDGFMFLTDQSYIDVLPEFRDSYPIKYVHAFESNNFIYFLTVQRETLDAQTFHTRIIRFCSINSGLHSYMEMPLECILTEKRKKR
T6 sequence (P22455 22-802): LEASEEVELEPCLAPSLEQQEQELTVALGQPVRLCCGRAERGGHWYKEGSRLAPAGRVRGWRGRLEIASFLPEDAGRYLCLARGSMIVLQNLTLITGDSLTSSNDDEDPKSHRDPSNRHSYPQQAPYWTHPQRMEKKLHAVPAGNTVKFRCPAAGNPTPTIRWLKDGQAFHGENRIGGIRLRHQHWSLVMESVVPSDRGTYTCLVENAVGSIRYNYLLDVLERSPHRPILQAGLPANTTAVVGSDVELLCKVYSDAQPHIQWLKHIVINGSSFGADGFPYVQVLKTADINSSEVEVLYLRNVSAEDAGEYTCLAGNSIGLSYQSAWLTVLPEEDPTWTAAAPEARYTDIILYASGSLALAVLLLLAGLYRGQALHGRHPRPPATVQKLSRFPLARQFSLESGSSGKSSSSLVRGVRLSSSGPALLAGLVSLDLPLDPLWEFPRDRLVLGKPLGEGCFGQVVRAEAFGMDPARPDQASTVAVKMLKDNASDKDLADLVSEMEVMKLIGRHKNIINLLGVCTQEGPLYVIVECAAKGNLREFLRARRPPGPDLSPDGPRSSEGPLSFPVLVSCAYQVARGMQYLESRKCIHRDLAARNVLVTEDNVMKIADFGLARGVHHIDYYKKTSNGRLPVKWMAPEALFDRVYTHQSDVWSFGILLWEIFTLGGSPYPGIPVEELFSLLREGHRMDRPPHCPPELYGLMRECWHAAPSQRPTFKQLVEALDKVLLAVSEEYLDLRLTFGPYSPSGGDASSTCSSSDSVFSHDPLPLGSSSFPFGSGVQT

COc1cc2c(Oc3ccc(NC(=O)C4(C(=O)Nc5ccc(F)cc5)CC4)cc3F)ccnc2cc1OCCCN1CCOCC1 [Foretinib]
MaMTH-DS reporter activity (AXL): strongly reduced, in a dose-dependent manner | reporter cell viability [1]: unaffected

C=CC(=O)Nc1cccc(C)c1Nc1ncc2cc(-c3c(Cl)c(OC)cc(OC)c3Cl)ccc2n1 [BLU9931]
reporter cell viability [2]: no effect

C[C@@H](Oc1cc(-c2cnn(C3CCNCC3)c2)cnc1N)c1c(Cl)ccc(F)c1Cl [Crizotinib]
reporter cell viability [3]: not due to a loss in cell viability

CCc1nc(C(N)=O)c(Nc2ccc(N3CCC(N4CCN(C)CC4)CC3)c(OC)c2)nc1NC1CCOCC1 [Gilteritinib, 6-ethyl-3-[3-methoxy-4-[4-(4-methylpiperazin-1-yl)piperidin-1-yl]anilino]-5-(oxan-4-ylamino)pyrazine-2-carboxamide]
viability of PC9 organoids [4]: dose-dependent reduction | interaction / complex formation with Shc1 (MaMTH, words) (EGFR L858R/T790M): inhibited complex formation | cell viability in combination with compound 5213777 [5]: increased effect | cell viability in combination with Panitumumab [5]: significantly enhanced | effect on kinase activity (EGFR ex19del/T790M/C797S): most robust inhibition | effect on kinase activity (EGFR ex19del-T790M): preferentially inhibits | phosphorylation and/or expression of EGFR and downstream signaling molecules [6]: inhibits EGFR activation and downstream signaling | interaction / complex formation with Shc1 (MaMTH, words) (EGFR-WT): not

O=c1c(Cl)c(Cl)cnn1Cc1ccccc1 [Compound 5357830]
WT > 50% Inhibition (EGFR-WT): YES | Average Percent (EGFR-WT): 6.2% | Average Percent (EGFR-L858R-T790M-C797S): 0.9%

C/C(=C\c1ccc(Cl)cc1)[N+](=O)[O-] [Compound 5238658]
WT > 50% Inhibition (EGFR-WT): YES | Average Percent (EGFR-WT): 0.9% | Average Percent (EGFR-L858R-T790M-C797S): 0.2%

COc1cc(N2CCC(N3CCN(C)CC3)CC2)ccc1Nc1ncc(Cl)c(Nc2ccccc2P(C)(C)=O)n1 [Brigatinib]
reporter cell viability [7]: unaffected

CC1CC(Nc2ccccc2)c2ccccc2N1C(=O)c1cccs1 (stereo not drawn) [Compound 5304079]
WT > 50% Inhibition (EGFR-WT): YES | Average Percent (EGFR-WT): 21.5% | Average Percent (EGFR-L858R-T790M-C797S): 11.7%

C=CC(=O)Nc1cc(Nc2nccc(-c3cn(C)c4ccccc34)n2)c(OC)cc1N(C)CCN(C)C [Osimertinib]
cell viability in combination with anti-EGFR antibody [8]: does not cause enhanced reduction | cell viability in combination with anti-EGFR antibody ([8]; listed as AZD9291): no such enhancement was evident | viability of PC9 organoids [4]: not observed | cell viability in combination with anti-EGFR antibody [9]: does not cause enhanced reduction | cell viability in combination with anti-EGFR antibody ([9]; listed as AZD9291): no such enhancement was evident | caspase 3 and 7 activity [10]: not observed

CO[C@@H]1[C@H](N(C)C(=O)c2ccccc2)C[C@H]2O[C@]1(C)n1c3ccccc3c3c4c(c5c6ccccc6n2c5c31)C(=O)NC4 [Midostaurin, N-[(9S,10R,11R,13R)-2,3,10,11,12,13-hexahydro-10-methoxy-9-methyl-1-oxo-9,13-epoxy-1H,9H-diindolo[1,2,3-gh:3′,2′,1′-lm]pyrrolo[3,4-j][1,7]benzodiazonin-11-yl]-N-methylbenzamide]
caspase 3 and 7 activity (CFBE cells): not observed | phosphorylation and/or expression of EGFR and downstream signalling molecules [11]: strongest response | effect on kinase activity (wild-type EGFR): no significant effect | effect on kinase activity (EGFR double mutants): inhibits the kinase activity | cell viability ([8]; compound alone, 72 hours): robust, dose-dependent reduction | cell viability in combination with anti-EGFR antibody [8]: Enhanced effect | viability of PC9 organoids [4]: dose-dependent reduction | phosphorylation and/or expression of EGFR and downstream signalling molecules [12]: strongest response | cell viability in combination with compound 5213777 [5]: increased effect | cell viability in combination with Panitumumab [5]: Enhanced effects | effect on kinase activity (EGFR ex19del/T790M/C797S): strongly inhibited | cell viability ([9]; compound alone, 72 hours): robust, dose-dependent reduction | cell viability in combination with anti-EGFR antibody [9]: Enhanced effect | caspase 3 and 7 activity [10]: dose-dependent activation | phosphorylation and/or expression of EGFR and downstream signaling molecules [6]: inhibitory effect | Average Percent (EGFR-WT): 129.3% | Average Percent (EGFR-L858R-T790M-C797S): 10.5%

CCN(CC)c1ccc2cc(-c3nc4ccccc4o3)c(=O)oc2c1 [Compound 5213777, 3-(1,3-benzoxazol-2-yl)-7-(diethylamino)-2H-chromen-2-one]
effect on kinase activity (wild-type EGFR): no kinase inhibitory activity | MaMTH-DS reporter activity (FGFR4): not | MaMTH-DS interaction with Shc1 (MET): not | MaMTH-DS reporter activity (ALK): not | effect on kinase activity (EGFR ex19del/T790M/C797S): no kinase inhibitory activity; also recorded: does not inhibit the kinase activity | interaction / complex formation with Shc1 (MaMTH, words) (EGFR-WT): not | Average Percent (EGFR-WT): 105.3% | Average Percent (EGFR-L858R-T790M-C797S): 27.8% | MaMTH-DS reporter activity (AXL): not

C#Cc1cccc(Nc2ncnc3cc(OCCOC)c(OCCOC)cc23)c1 [Erlotinib]
MaMTH-DS reporter activity (FGFR4): not | MaMTH-DS interaction with Shc1 (MET): not | MaMTH-DS reporter activity (AXL): not

Reference: patent US11123330B2, “Methods and compositions for inhibiting mutant EGFR signaling” (The Governing Council of the University of Toronto, priority 2017, dated 2021)
